BindingDB's records for doi:10.1021/jm031016d (University of Athens, 2004)

Assays:
[1] = biological target: Cyclin-dependent kinase 1/G2/mitotic-specific cyclin-B (Marthasterias glacialis, UniProt P15206+Q9DGD3); assay: Kinase Inhibition Assay; conditions: 30 °C
[2] = biological target: T1, Cyclin-dependent kinase 5 activator 1 [99-307] (Homo sapiens, UniProt Q00535); assay: Kinase Inhibition Assay; conditions: 30 °C
T1 construct: 99-307

[3] = biological target: Glycogen synthase kinase-3 alpha/beta (Sus scrofa); assay: Kinase activities were assayed in buffers containing substrate, enzyme, and inhibitor at 30 °C in the presence of 15 uM ATP/ [gamma-32P] ATP. 32P incorporation was measured with a scintillation counter. The IC50 is the inhibitor concentration, which inhibits 50% of kinase activity that catalyzes the transfer of the terminal phosphate from 32P l

T1 sequence (Q15078 99-307): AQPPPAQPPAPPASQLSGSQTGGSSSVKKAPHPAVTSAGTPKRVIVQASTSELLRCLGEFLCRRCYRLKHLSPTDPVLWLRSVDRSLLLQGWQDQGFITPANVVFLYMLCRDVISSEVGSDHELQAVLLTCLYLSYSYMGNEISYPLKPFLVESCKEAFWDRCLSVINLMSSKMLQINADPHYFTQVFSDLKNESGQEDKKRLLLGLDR
T1 sequence (Q00535 whole entry): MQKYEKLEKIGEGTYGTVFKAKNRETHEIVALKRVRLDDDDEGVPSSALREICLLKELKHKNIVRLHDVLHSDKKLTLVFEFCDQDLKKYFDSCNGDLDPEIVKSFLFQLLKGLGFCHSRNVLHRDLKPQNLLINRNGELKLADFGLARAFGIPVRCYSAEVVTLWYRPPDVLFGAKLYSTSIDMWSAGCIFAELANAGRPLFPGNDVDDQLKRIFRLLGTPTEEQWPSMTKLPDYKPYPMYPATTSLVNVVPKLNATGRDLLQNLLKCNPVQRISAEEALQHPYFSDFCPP
Sequence of Cyclin-dependent kinase 1/G2/mitotic-specific cyclin-B (Q9DGD3 whole entry): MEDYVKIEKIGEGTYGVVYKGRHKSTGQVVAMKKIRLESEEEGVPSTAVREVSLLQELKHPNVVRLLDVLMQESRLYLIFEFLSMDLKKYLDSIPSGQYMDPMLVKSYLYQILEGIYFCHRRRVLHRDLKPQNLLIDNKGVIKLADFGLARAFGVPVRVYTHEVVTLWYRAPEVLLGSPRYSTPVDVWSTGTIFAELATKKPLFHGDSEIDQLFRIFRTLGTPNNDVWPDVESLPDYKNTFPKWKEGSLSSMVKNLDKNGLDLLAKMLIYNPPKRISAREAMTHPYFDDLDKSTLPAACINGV
Sequence of Cyclin-dependent kinase 1/G2/mitotic-specific cyclin-B (P15206 whole entry): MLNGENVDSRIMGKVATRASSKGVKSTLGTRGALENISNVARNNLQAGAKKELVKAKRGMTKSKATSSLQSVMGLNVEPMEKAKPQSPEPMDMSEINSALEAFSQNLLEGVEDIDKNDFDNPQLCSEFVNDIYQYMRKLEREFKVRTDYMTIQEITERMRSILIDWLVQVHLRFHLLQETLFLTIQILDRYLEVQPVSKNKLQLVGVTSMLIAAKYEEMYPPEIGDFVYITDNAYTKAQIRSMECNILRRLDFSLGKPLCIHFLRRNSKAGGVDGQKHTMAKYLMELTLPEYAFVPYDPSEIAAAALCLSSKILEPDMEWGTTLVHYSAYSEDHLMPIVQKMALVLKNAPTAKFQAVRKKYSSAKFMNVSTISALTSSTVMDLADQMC

SMILES: CC(=O)ON=C1C(=C2C(=O)Nc3cc(I)ccc32)Nc2ccccc21 [(2 Z,3 E)-6-Iodoindirubin-3-acetoxime]
- IC50 [1]: 2200 nM
- IC50 [2]: 1300 nM
- IC50 [3]: 13 nM

SMILES: CO/N=C1/C(=C2/C(=O)Nc3cc(Br)ccc32)Nc2ccccc21 [(2 Z,3 E)-6-Bromoindirubin-3-methoxime]
- IC50 ([1]; pH 7.2): 3700 nM
- IC50 [2]: 2200 nM
- IC50 [3]: 30 nM

SMILES: CN1C(=O)/C(=C2\Nc3ccccc3C2=O)c2ccccc21 [1-methyl-3-[(2Z)-3-oxo-2,3-dihydro-1H-indol-2-ylidene]-2,3-dihydro-1H-indol-2-one]
- IC50 [1]: > 100000 nM
- IC50 [2]: > 100000 nM
- IC50 [3]: > 100000 nM

SMILES: O=Nc1c(C2C(=O)Nc3cc(F)ccc32)[nH]c2ccccc12 (stereo not drawn) [6-fluoro-3-[(2Z,3E)-3-(hydroxyimino)-2,3-dihydro-1H-indol-2-ylidene]-2,3-dihydro-1H-indol-2-one]
- IC50 [1]: 320 nM
- IC50 [2]: 150 nM
- IC50 [3]: 130 nM

SMILES: CC(=O)ON=C1C(=C2C(=O)Nc3cc(Cl)ccc32)Nc2ccccc21 [6-chloroindirubin-3-acetoxime]
- IC50 ([1]; pH 7.2): 30000 nM
- IC50 [2]: 200 nM
- IC50 [3]: 17 nM

SMILES: O=C1Nc2cc(Br)ccc2/C1=C1/Nc2cc(Br)ccc2C1=O [(2 Z)-6,6 -Dibromoindirubin]
- IC50 ([1]; pH 7.2): > 100000 nM
- IC50 [2]: > 100000 nM
- IC50 [3]: 4500 nM

SMILES: O=Nc1c(C2C(=O)Nc3cc(Cl)ccc32)[nH]c2ccccc12 (stereo not drawn) [6-chloro-3-[(2Z,3E)-3-(hydroxyimino)-2,3-dihydro-1H-indol-2-ylidene]-2,3-dihydro-1H-indol-2-one]
- IC50 ([1]; pH 7.2): 650 nM
- IC50 [2]: 100 nM
- IC50 [3]: 20 nM

SMILES: C=Cc1ccc2c(c1)NC(=O)C2c1[nH]c2ccccc2c1N=O (stereo not drawn) [6-vinylindirubin-3-oxime]
- IC50 [1]: 1200 nM
- IC50 [2]: 420 nM
- IC50 [3]: 60 nM

SMILES: CC(=O)ON=C1C(=C2C(=O)Nc3ccccc32)Nc2ccccc21 [[(3E)-2-[(3Z)-2-oxo-2,3-dihydro-1H-indol-3-ylidene]-2,3-dihydro-1H-indol-3-ylidene]amino acetate]
- IC50 [2]: 700 nM

SMILES: O=Nc1c(C2C(=O)Nc3cc(Br)c([N+](=O)[O-])cc32)[nH]c2ccccc12 (stereo not drawn) [6-bromo-3-[(2Z,3E)-3-(hydroxyimino)-2,3-dihydro-1H-indol-2-ylidene]-5-nitro-2,3-dihydro-1H-indol-2-one]
- IC50 [2]: 150 nM

SMILES: O=C1Nc2cc(F)ccc2/C1=C1/Nc2ccccc2C1=O [6-fluoroindirubin]
- IC50 [2]: 1000 nM

SMILES: Cc1cc2c(cc1Br)NC(=O)/C2=C1\Nc2ccccc2C1=O [6-bromo-5-methylindirubin]
- IC50 [1]: 30000 nM
- IC50 [2]: 60000 nM
- IC50 [3]: 25 nM

SMILES: O=C1Nc2cc(I)ccc2/C1=C1/Nc2ccccc2C1=O [6-iodoindirubin]
- IC50 ([1]; pH 7.2): 1600 nM
- IC50 [2]: 5300 nM
- IC50 [3]: 55 nM

SMILES: CN1C(=O)C(c2[nH]c3ccccc3c2N=O)c2ccccc21 (stereo not drawn) [3-[(2Z,3E)-3-(hydroxyimino)-2,3-dihydro-1H-indol-2-ylidene]-1-methyl-2,3-dihydro-1H-indol-2-one]
- IC50 [1]: 73000 nM
- IC50 [2]: > 100000 nM
- IC50 [3]: > 100000 nM

SMILES: O=C1Nc2cc(Br)ccc2/C1=C1/Nc2ccccc2C1=O [6-bromo-3-[(2Z)-3-oxo-2,3-dihydro-1H-indol-2-ylidene]-2,3-dihydro-1H-indol-2-one]
- IC50 [2]: 53000 nM

SMILES: C=Cc1ccc2c(c1)NC(=O)/C2=C1\Nc2ccccc2C1=O [6-vinylindirubin]
- IC50 [1]: 4200 nM
- IC50 [2]: 2400 nM
- IC50 [3]: 240 nM

SMILES: O=C1Nc2cc(Cl)ccc2/C1=C1/Nc2ccccc2C1=O [6-chloro-3-[(2Z)-3-oxo-2,3-dihydro-1H-indol-2-ylidene]-2,3-dihydro-1H-indol-2-one]
- IC50 ([1]; pH 7.2): > 100000 nM
- IC50 [2]: > 100000 nM
- IC50 [3]: 140 nM

SMILES: CO/N=C1/C(=C2/C(=O)Nc3ccccc32)Nc2ccccc21 [3-[(2Z,3E)-3-(methoxyimino)-2,3-dihydro-1H-indol-2-ylidene]-2,3-dihydro-1H-indol-2-one]
- IC50 [2]: 400 nM

SMILES: Cc1cc2c(cc1Br)NC(=O)C2c1[nH]c2ccccc2c1N=O (stereo not drawn) [6-bromo-3-[(2Z,3E)-3-(hydroxyimino)-2,3-dihydro-1H-indol-2-ylidene]-5-methyl-2,3-dihydro-1H-indol-2-one]
- IC50 [2]: 130 nM

SMILES: O=C1Nc2cc(Br)c([N+](=O)[O-])cc2[C+]1c1[nH]c2ccccc2c1[O-] [6-Bromo-5-nitroindirubin]
- IC50 [1]: > 100000 nM
- IC50 [2]: > 100000 nM
- IC50 [3]: 100 nM

SMILES: O=Nc1c(C2C(=O)Nc3cc(I)ccc32)[nH]c2ccccc12 (stereo not drawn) [6-iodoindirubin-3-oxime]
- IC50 [2]: 300 nM

SMILES: C=Cc1ccc2c(c1)NC(=O)C2=C1Nc2ccccc2C1=NOC(C)=O [[(3E)-2-[(3Z)-6-ethenyl-2-oxo-2,3-dihydro-1H-indol-3-ylidene]-2,3-dihydro-1H-indol-3-ylidene]amino acetate]
- IC50 [1]: 1600 nM
- IC50 [2]: 400 nM
- IC50 [3]: 65 nM

SMILES: O=C1Nc2cccc(Cl)c2/C1=C1/Nc2ccccc2C1=O [4-chloro-3-[(2Z)-3-oxo-2,3-dihydro-1H-indol-2-ylidene]-2,3-dihydro-1H-indol-2-one]
- IC50 [1]: 10000 nM
- IC50 [2]: 10000 nM
- IC50 [3]: > 100000 nM

SMILES: O=Nc1c(C2C(=O)Nc3cc(Br)ccc32)[nH]c2cc(Br)ccc12 (stereo not drawn) [6-bromo-3-[(2Z,3E)-6-bromo-3-(hydroxyimino)-2,3-dihydro-1H-indol-2-ylidene]-2,3-dihydro-1H-indol-2-one]
- IC50 ([1]; pH 7.2): 17000 nM
- IC50 [2]: 1300 nM
- IC50 [3]: 120 nM

SMILES: O=C1Nc2cc(Cl)c(Cl)cc2/C1=C1/Nc2ccccc2C1=O [(2 Z)-5,6-Dichloroindirubin]
- IC50 [1]: 45000 nM
- IC50 [2]: 60000 nM
- IC50 [3]: 30 nM

SMILES: CN1C(=O)/C(=C2\Nc3ccccc3C2=O)c2ccc(Br)cc21 [(2 Z)-6-Bromo-1-methylindirubin]
- IC50 ([1]; pH 7.2): > 100000 nM
- IC50 [2]: > 100000 nM
- IC50 [3]: > 100000 nM

SMILES: CC(=O)ON=C1C(=C2C(=O)Nc3cc(F)ccc32)Nc2ccccc21 [(2 Z,3 E)-6-Fluoroindirubin-3-acetoxime]
- IC50 [2]: 300 nM

SMILES: CN1C(=O)C(c2[nH]c3ccccc3c2N=O)c2ccc(Br)cc21 (stereo not drawn) [(2 Z,3 E)-6-Bromo-1-methylindirubin-3-oxime]
- IC50 ([1]; pH 7.2): 92000 nM
- IC50 [2]: > 100000 nM
- IC50 [3]: > 100000 nM
